What was measured:
HIV-1 protease I50V/A71V = HIV-1 protease I50V/A71V (Human immunodeficiency virus type 1 group M subtype B, UniProt P12497, A559V/I538V/Q495K); experiment: biochemical
HIV-1 protease I84V = HIV-1 protease I84V (Human immunodeficiency virus type 1 group M subtype B, UniProt P12497, I572V/Q495K); experiment: biochemical
[1] = system: human T-cell lymphotropic virus type 1 (HTLV-1) protease; settings: cited from earlier work
HIV-1-SLK = experiment: Antiviral assay with resistant HIV-1 variant SLK; assay type: cell-based; settings: read-out: Antiviral EC50, HIV-1-SLK; multi-PI resistant recombinant virus

Which results are given for `CCOP(=O)(COc1ccc(C[C@H](NC(=O)O[C@H]2CO[C@H]3OCC[C@H]32)[C@H](O)CN(CC(C)C)S(=O)(=O)c2ccc(OC)cc2)cc1)OCC` [GS-8374]?
Ki (HIV-1 protease I50V/A71V): < 0.005 nM; Ki (HIV-1 protease I84V): < 0.005 nM

With `CCOP(=O)(COc1ccc(C[C@H](NC(=O)O[C@H]2CO[C@H]3OCC[C@H]32)[C@H](O)CN(CC(CC)CC)S(=O)(=O)c2ccc(N)cc2)cc1)OCC` [PU6, (3R,3aS,6aR)-Hexahydrofuro[2,3-b]furan-3-yl ((2S,3R)-4-((4-amino-N-(2-ethylbutyl)phenyl)sulfonamido)-1-(4-((diethoxyphosphoryl)methoxy)phenyl)-3-hydroxybutan-2-yl)carbamate] as the compound, how does the “Inhibition of HTLV-1 protease” value [1] read?
Its value is “potent inhibitor”.

With `CCOP(=O)(COc1ccc(C[C@H](NC(=O)O[C@H]2CO[C@H]3OCC[C@H]32)[C@H](O)CN(CC(CC)CC)S(=O)(=O)c2ccc(OC)cc2)cc1)OCC` [PU7, (3R,3aS,6aR)-Hexahydrofuro[2,3-b]furan-3-yl ((2S,3R)-1-(4-((diethoxyphosphoryl)methoxy)phenyl)-4-((N-(2-ethylbutyl)-4-methoxyphenyl)sulfonamido)-3-hydroxybutan-2-yl)carbamate] as the compound, how does the EC50 (HIV-1-SLK) read?
The EC50 was < 10 nM.

For `CCOP(=O)(COc1ccc(C[C@H](NC(=O)O[C@H]2CO[C@H]3OCC[C@H]32)[C@H](O)CN(CC(CC)CC)S(=O)(=O)c2ccc3c(c2)OCO3)cc1)OCC` [PU9, (3R,3aS,6aR)-Hexahydrofuro[2,3-b]furan-3-yl ((2S,3R)-1-(4-((diethoxyphosphoryl)methoxy)phenyl)-4-(N-(2-ethylbutyl)benzo[d][1,3]dioxole-5-sulfonamido)-3-hydroxybutan-2-yl)carbamate], which EC50 (HIV-1-SLK) is on record?
The EC50 was < 10 nM.

Reference: article PMC10332405 (European journal of medicinal chemistry, 2023)
